Assay results from patent US20080199423A1, “Methods of Using Apo2l Receptor Agonists and Ink Cell Activators” (GENENTECH, INC., priority 2004, published 2008).

Key:
[1] = test system: cell surface Apo2L/TRAIL on NK cells; experiment: Flow cytometry of cell surface Apo2L/TRAIL on purified NK cells; format: cell-based, human; conditions: 5C2-Alexa 488 staining
Experimental: Cell surface Apo2L/TRAIL on purified NK cells treated with poly(I:C), R-848 or hIL-2 (30 ng/ml, BD Biosciences) was also analyzed by cytometry. Isotype control (IgG2a, Sigma) and anti-Apo2L/TRAIL antibody (5C2) were labeled with Alexa 488 (Molecular Probes). 5×10^5 cells were incubated with 2 μg of human IgG to block FcRs and 1 μg of the directly labeled mAbs at 4° C. for 45 minutes, followed by 2 washes. Stained cells were analyzed using a FACScan cytometer (Becton Dickenson) and Cellquest software.

[2] = test system: NK cells; experiment: Microarray (Affymetrix U133) gene expression analysis of poly(I:C)-treated NK cells; format: cell-based, human; conditions: for FoldChange / log10-FoldChange: relative to untreated NK cells
Experimental: A microarray based gene expression analysis using high-density oligonucleotide arrays (GeneChip, Affymetrix) was performed using RNA from resting and poly(I:C)-treated NK cells (NK cells were obtained and purified from 4 healthy donors using the technique described in Example 1 above). The NK cells were treated with poly(I:C) (50 μg/ml, Pharmacia) overnight in RPMI 1640 supplemented with heat inactivated 10% FCS, penicillin, streptomycin, 10 mM sodium pyruvate, 2 mM L-glutamine and 10 mM HEPES. RNA was isolated using a RNeasy kit (Qiagen), and treated with RNase-free DNase-I (Ambion) to ensure removal of contaminating DNA. NK cells were lysed in lysis buffer (50 mM HEPES pH7.5, 150 mM NaCl, 1.5 mM MgCl2, 1 mM EGTA, 10% glycerol and 1% Triton X-100, supplemented with Complete Protease Inhibitor Cocktail (Roche).
Affymetrix U133A and B GeneChip probe arrays were used to identify differentially expressed transcripts. Initially, the genes were ranked according to concordance in the pairwise comparison, and the Mann-Whitney pairwise comparison test was used to calculate significance. Genes for which the concordance was 100% were chosen for further analysis. This approach was previously validated to identify differentially expressed genes by confirming with real time RT-PCR. To determine confidence intervals shown in Table 1, the average log10-signal was computed for each probe set of the genes of interest, or the treatment and control groups. The estimated log10 fold change was defined as the difference between these averages. A pooled estimate of the standard deviation about the two groups' averages (computed separately for each probe set) was used to compute a 95% confidence interval for the log10 fold change. The estimated log10 fold change and the two endpoints of its 95% confidence interval were exponentiated back to the original signal scale, providing an estimate of fold change and a corresponding 95% confidence interval. Additional information about the U133 probe sets is available from the manufacturer, Affymetrix.
Fold change values and associated 95% confidence intervals (degree of freedom=6) were determined for genes of interest upon treatment with poly(I:C) relative to untreated NK cells. Data for each probe set present on the Affymetrix U133 chip series corresponding to the genes of interest is shown.

[3] = test system: HCT116 cells; experiment: 51Cr release cytotoxicity assay on HCT116 target cells; format: cell-based; conditions: NK cells stimulated with agent
Experimental: (§1) Purified NK cells were treated with poly(I:C) or R-848 and incubated with B16BL10 melanoma cells (ATCC) at the indicated ratios. Purified NK cells stimulated with R-848 were incubated with HCT116 target cells (ATCC) at the indicated ratios. The role of Apo2L/TRAIL in lysis assays in panels B and C was determined by preincubation with neutralizing (5C2) and non-neutralizing (1D1) anti-Apo2L/TRAIL mAbs. The data has been confirmed with NK cells from at least 3 donors and less that 5% SD was observed.
(§2) For the cytotoxicity assays, target cells were labeled with 100 mCi ^51Cr for 1 hour at 37° C. and then washed 3 times before use. 10^4 target cells were added to varying numbers of effector cells at the indicated ratios and incubated in duplicate wells for 4 hours at 37° C., 5% CO2, and supernatants were used to determine ^51Cr released using a Gamma counter. The cytotoxicity assays were performed in round bottom 96 well plates and the percent specific lysis was calculated as 100× (experimental cpm-spontaneous cpm)/(total cpm-spontaneous cpm). The role of Apo2L/TRAIL expressed by NK cells in the lysis of target cells was evaluated using anti-Apo2L/TRAIL mAbs (5C2 and 1D1, Genentech, Inc.). Isotype control antibodies were obtained from BD Biosciences.

[4] = test system: B16BL10 melanoma cells; experiment: 51Cr release cytotoxicity assay on B16 melanoma target cells; format: cell-based, mouse; conditions: NK cells stimulated with agent
Experimental: as §1, §2

[5] = gene Apo2L, probe set 202687_s_at
[6] = gene Apo2L, probe set 202688_at
[7] = gene Apo2L, probe set 214329_x_at
[8] = gene CCL19, probe set 210072_at
[9] = gene CCL20, probe set 205476_at
[10] = gene CCL21, probe set 204606_at
[11] = gene FasL, probe set 211333_s_at
[12] = gene Granulysin, probe set 37145_at
[13] = gene Granulysin, probe set 205495_s_at
[14] = gene Granzyme A, probe set 205488_at
[15] = gene Granzyme B, probe set 210164_at
[16] = gene Granzyme H, probe set 210321_at
[17] = gene Granzyme M, probe set 207460_at
[18] = gene IL-8, probe set 202859_x_at
[19] = gene IL-8, probe set 211506_s_at
[20] = gene NKG2-D, probe set 205821_at
[21] = gene NKG2-D, probe set 210690_at
[22] = gene NKG2A, probe set 206785_s_at
[23] = gene NKp30, probe set 210629_x_at
[24] = gene NKp30, probe set 211581_x_at
[25] = gene NKp30, probe set 211582_x_at
[26] = gene NKp30, probe set 214181_x_at
[27] = gene NKp30, probe set 214574_x_at
[28] = gene Perforin 1, probe set 214617_at
[29] = gene TNFα, probe set 207113_s_at
[30] = poly(I:C) treatment, microarray

For poly(I:C), the “Cell surface expression of Apo2L/TRAIL on NK cells” value [1] was “detectable cell surface expression”, the FoldChange [2, 5] was 13.42 and the log10-FoldChange [2, 5] was 1.13. It also gave a FoldChange [2, 6] of 9.67, a log10-FoldChange [2, 6] of 0.99 and a FoldChange [2, 7] of 5.85. It also gave a log10-FoldChange [2, 7] of 0.77, a FoldChange [2, 8] of 34.71 and a log10-FoldChange [2, 8] of 1.54. The FoldChange [2, 9] was 7.96, the log10-FoldChange [2, 9] was 0.9 and the FoldChange [2, 10] was 1.2. It also gave a log10-FoldChange [2, 10] of 0.08, a FoldChange ([2]; gene CCR7, probe set 206337_at) of 4.79 and a log10-FoldChange ([2]; gene CCR7, probe set 206337_at) of 0.68. It also gave a FoldChange ([2]; gene FasL, probe set 210865_at) of 2.37, a log10-FoldChange ([2]; gene FasL, probe set 210865_at) of 0.37 and a FoldChange [2, 11] of 2.49. For the same substance, the log10-FoldChange [2, 11] was 0.4, the FoldChange [2, 12] was 1.18 and the log10-FoldChange [2, 12] was 0.07. For the same substance, the FoldChange [2, 13] was 1.25, the log10-FoldChange [2, 13] was 0.1 and the FoldChange [2, 14] was 0.83. For the same substance, the log10-FoldChange [2, 14] was −0.08, the FoldChange [2, 15] was 1.04 and the log10-FoldChange [2, 15] was 0.02. It also gave a FoldChange [2, 16] of 0.58, a log10-FoldChange [2, 16] of −0.24 and a FoldChange [2, 17] of 0.81. It also gave a log10-FoldChange [2, 17] of −0.09, a FoldChange ([2]; gene IFNγ, probe set 210354_at) of 14.45 and a log10-FoldChange ([2]; gene IFNγ, probe set 210354_at) of 1.16. The FoldChange ([2]; gene IL-6, probe set 205207_at) was 10.43, the log10-FoldChange ([2]; gene IL-6, probe set 205207_at) was 1.02 and the FoldChange [2, 18] was 4.07. It also gave a log10-FoldChange [2, 18] of 0.61, a FoldChange [2, 19] of 3.42 and a log10-FoldChange [2, 19] of 0.53. The FoldChange [2, 20] was 0.86, the log10-FoldChange [2, 20] was −0.07 and the FoldChange [2, 21] was 0.66. The log10-FoldChange [2, 21] was −0.18, the FoldChange [2, 22] was 0.97 and the log10-FoldChange [2, 22] was −0.01. The FoldChange [2, 23] was 0.38, the log10-FoldChange [2, 23] was −0.42 and the FoldChange [2, 24] was 0.26. It also gave a log10-FoldChange [2, 24] of −0.59, a FoldChange [2, 25] of 0.19 and a log10-FoldChange [2, 25] of −0.72. For the same substance, the FoldChange [2, 26] was 0.22, the log10-FoldChange [2, 26] was −0.67 and the FoldChange [2, 27] was 0.25. The log10-FoldChange [2, 27] was −0.6, the FoldChange [2, 28] was 1.3 and the log10-FoldChange [2, 28] was 0.12. The FoldChange [2, 29] was 2.68, the log10-FoldChange [2, 29] was 0.43 and the “Expression of mRNA for FasL and TNF-alpha” value ([2]; poly(I:C) treatment (activation of TLR3)) was “smaller, but reproducible increase”. The “Decrease in expression of NKp30 in NK cells” value [2, 30] was 3-5 fold, the “Decrease in expression of granzyme H in NK cells” value [2, 30] was 3-5 fold and the “Expression of mRNAs encoding perforin, granulysin, granzymes A, B, M, NKG2D and NKp44” value [2, 30] was “did not significantly alter”. For the same substance, the “Increase in expression of Apo2L/TRAIL in NK cells” value [2, 30] was ~10 fold, the “Cytotoxicity of stimulated NK cells towards HCT116 cells” value [3] was “increased cytoxicity” and the “Killing of B16 melanoma cells by stimulated NK cells” value [4] was “efficiently killed”.
